Laboratory results taken from patent US20230167073A1 (Teijin Pharma Limited, priority 2020, published 2023).

Target: T1, Human TRPC6 (Homo sapiens, UniProt Q9Y210)
T1 construct: expressed in transfected cells
T1 sequence (Q9Y210 1-931): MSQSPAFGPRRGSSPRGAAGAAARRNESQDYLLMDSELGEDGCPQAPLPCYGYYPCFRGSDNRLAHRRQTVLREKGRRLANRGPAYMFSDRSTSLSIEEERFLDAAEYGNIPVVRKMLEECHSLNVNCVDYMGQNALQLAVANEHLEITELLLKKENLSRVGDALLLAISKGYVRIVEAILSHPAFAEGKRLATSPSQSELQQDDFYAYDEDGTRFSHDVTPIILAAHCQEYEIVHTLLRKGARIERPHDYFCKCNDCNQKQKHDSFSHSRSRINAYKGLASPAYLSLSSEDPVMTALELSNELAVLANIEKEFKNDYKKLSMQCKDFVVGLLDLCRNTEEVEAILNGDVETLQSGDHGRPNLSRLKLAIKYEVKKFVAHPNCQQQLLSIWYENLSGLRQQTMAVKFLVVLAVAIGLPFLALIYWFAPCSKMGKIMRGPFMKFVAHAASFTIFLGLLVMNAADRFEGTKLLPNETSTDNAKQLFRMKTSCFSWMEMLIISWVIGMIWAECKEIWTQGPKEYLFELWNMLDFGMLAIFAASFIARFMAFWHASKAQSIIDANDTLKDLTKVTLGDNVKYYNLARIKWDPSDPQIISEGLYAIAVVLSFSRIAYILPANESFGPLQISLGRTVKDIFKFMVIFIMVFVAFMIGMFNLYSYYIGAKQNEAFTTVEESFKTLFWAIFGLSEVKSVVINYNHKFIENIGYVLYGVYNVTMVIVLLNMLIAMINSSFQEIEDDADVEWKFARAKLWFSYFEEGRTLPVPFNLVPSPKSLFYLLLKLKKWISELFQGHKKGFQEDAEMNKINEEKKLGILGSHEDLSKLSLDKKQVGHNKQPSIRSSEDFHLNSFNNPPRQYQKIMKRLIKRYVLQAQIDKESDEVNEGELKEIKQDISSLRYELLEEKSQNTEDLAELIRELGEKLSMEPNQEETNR
Assay: Evaluation of TRPC6 channel inhibitory activity (1), FLIPR Calcium 5 Assay Kit, OAG stimulation (Compound Nos. 1-1293)
Assay type: cell-based
Conditions: Human TRPC6 stably-expressing cells, OAG 30 μM, FLIPR Calcium 5 Assay Kit; read-out: Inhibitory activity (pIC50 class) (converted)
How it was run: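 Calcium influx read by FLIPR fluorescence in cells stably expressing human TRPC6, dye-loaded 30 min. Compounds preincubated 20 min, then OAG stimulation at 30 μM final. Inhibition fitted by four-parameter logistic regression to give pIC50, reported as +/++/+++ categories.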

| Structure (SMILES) | IC50 [nM] |
| --- | --- |
| Cn1nc(C(C)(C)C)cc1C(=O)c1cc(C#N)ccc1-c1ncc(CN)cn1 [Compound No. 1030, 4-[5-(Aminomethyl)pyrimidin-2-yl]-3-(5-tert-butyl-2-methylpyrazole-3-carbonyl)benzonitrile] | < 10 |
| CCc1cc(Oc2cc(C#N)ccc2-c2ccc(OCCN)cn2)n(C)n1 [compound 345, 4-[5-(2-aminoethoxy)pyridin-2-yl]-3-(5-ethyl-2-methylpyrazol-3-yl)oxybenzonitrile] | 10 to 1000 |
| CC(C)c1cc(Oc2cc(C#N)ccc2-c2ccc(CCN)cn2)n(C)n1 [Compound 229, 4-[5-(2-aminoethyl)pyridin-2-yl]-3-(2-methyl-5-propan-2-ylpyrazol-3-yl)oxybenzonitrile] | < 10 |
| Cc1nc(Oc2cc(C#N)ccc2-n2cnc(C(O)CN)c2)cc(-c2ccccc2)n1 (stereo not drawn) [Compound 200, 4-[4-(2-amino-1-hydroxyethyl)imidazol-1-yl]-3-(2-methyl-6-phenylpyrimidin-4-yl)oxybenzonitrile] | > 1000 |
| Cc1noc(C)c1-c1cc(Oc2cc(C#N)ccc2-c2ccc(CCN)cc2)cnn1 [Compound 110, 4-[4-(2-aminoethyl)phenyl]-3-[6-(3,5-dimethyl-1,2-oxazol-4-yl)pyridazin-4-yl]oxybenzonitrile] | > 1000 |
| Cn1nc(-c2ccc(F)cc2)cc1Oc1cc(C#N)ccc1-c1ccc(CCN)nc1 [Compound 184, 4-[6-(2-aminoethyl)pyridin-3-yl]-3-[5-(4-fluorophenyl)-2-methylpyrazol-3-yl]oxybenzonitrile] | 10 to 1000 |
| Cc1nn(CC(C)C)cc1Oc1cc(F)ccc1-c1ncc(CCN)cn1 [Compound No. 966, 2-[2-[4-Fluoro-2-[3-methyl-1-(2-methylpropyl)pyrazol-4-yl]oxyphenyl]pyrimidin-5-yl]ethanamine] | < 10 |
| CCCN(CCC)c1cc(Oc2cc(C#N)ccc2-c2ccc(CCN)cc2)nc(C)n1 [Compound 16, 4-[4-(2-aminoethyl)phenyl]-3-[6-(dipropylamino)-2-methylpyrimidin-4-yl]oxybenzonitrile] | 10 to 1000 |
| Cc1cc(Oc2cc(C#N)ccc2-c2ccc(CCN)cn2)cc(-c2ccccn2)n1 [Compound 258, 4-[5-(2-aminoethyl)pyridin-2-yl]-3-(2-methyl-6-pyridin-2-ylpyridin-4-yl)oxybenzonitrile] | < 10 |
| Cc1nc(OCC(F)(F)F)cc(Oc2cc(C#N)ccc2-c2ccc(CCN)cc2)n1 [Compound 35, 4-[4-(2-aminoethyl)phenyl]-3-[2-methyl-6-(2,2,2-trifluoroethoxy)pyrimidin-4-yl]oxybenzonitrile] | 10 to 1000 |
| Cc1cc(Oc2cc(C#N)ccc2-c2ccc([C@H](O)CN)cn2)cc(N2CCOCC2)n1 [compound 429, 4-[5-[(1S)-2-amino-1-hydroxyethyl]pyridin-2-yl]-3-(2-methyl-6-morpholin-4-ylpyridin-4-yl)oxybenzonitrile] | < 10 |
| Cc1nc(OCC2CCC2)cc(Oc2cc(C#N)ccc2-n2cc([C@@H](O)CN)cn2)n1 [Compound 270, 4-[4-[(1R)-2-amino-1-hydroxyethyl]pyrazol-1-yl]-3-[6-(cyclobutylmethoxy)-2-methylpyrimidin-4-yl]oxybenzonitrile] | 10 to 1000 |
| Cc1nc(Oc2cc(C#N)ccc2-n2cc(C(O)CN(C)C)cn2)cc(-c2ccccc2)n1 (stereo not drawn) [Compound 104, 4-[4-[2-(dimethylamino)-1-hydroxyethyl]pyrazol-1-yl]-3-(2-methyl-6-phenylpyrimidin-4-yl)oxybenzonitrile] | > 1000 |

Results, then the molecule that gave them:

| IC50 [nM] | Structure (SMILES) |
| --- | --- |
| > 1000 | Cn1nc(C2CC2)cc1Oc1cc(C#N)ccc1-c1cccn2c([C@@H](N)CCO)nnc12 (stereo in doubt) [compound 533, 4-[3-(1-amino-3-hydroxypropyl)-[1,2,4]triazolo[4,3-a]pyridin-8-yl]-3-(5-cyclopropyl-2-methylpyrazol-3-yl)oxybenzonitrile] |
| 10 to 1000 | Cc1nc(C2CCOCC2)cn1Cc1cc(C#N)ccc1-c1ncc(CN)cn1 [compound 1164, 4-[5-(aminomethyl)pyrimidin-2-yl]-3-[[2-methyl-4-(oxan-4-yl)imidazol-1-yl]methyl]benzonitrile] |
| 10 to 1000 | N#Cc1ccc(-c2ncc(CN)cn2)c(Oc2nnc(N3CCCCC3)s2)c1 [compound 707, 4-[5-(aminomethyl)pyrimidin-2-yl]-3-[(5-piperidin-1-yl-1,3,4-thiadiazol-2-yl)oxy]benzonitrile] |
| < 10 | C[C@@H](N)c1cnc(-c2ccc(C#N)cc2Oc2cc(-c3ccccn3)nn2C)nc1 [compound 808, 4-[5-[(1R)-1-aminoethyl]pyrimidin-2-yl]-3-(2-methyl-5-pyridin-2-ylpyrazol-3-yl)oxybenzonitrile] |
| < 10 | CN(C)c1cc(Oc2cc(C#N)ccc2-c2ccc([C@@H](F)CN)cn2)n(C)n1 [compound 910, 4-[5-[(1R)-2-amino-1-fluoroethyl]pyridin-2-yl]-3-[5-(dimethylamino)-2-methylpyrazol-3-yl]oxybenzonitrile] |
| < 10 | Cc1cc(Oc2cc(C#N)ccc2-c2ncc(CN)cn2)cc(NC(C)C)n1 [compound 644, 4-[5-(aminomethyl)pyrimidin-2-yl]-3-[2-methyl-6-(propan-2-ylamino)pyridin-4-yl]oxybenzonitrile] |
| 10 to 1000 | N#Cc1ccc(-c2ncc(CN)cn2)c(Oc2cc(N3CCCCC3)nnc2Cl)c1 [compound 815, 4-[5-(aminomethyl)pyrimidin-2-yl]-3-(3-chloro-6-piperidin-1-ylpyridazin-4-yl)oxybenzonitrile] |
| < 10 | Cc1nc(Oc2cc(C#N)ccc2-c2ncc(CCN)cn2)cc(N2CCC[C@@H]2C)n1 [compound 860, 4-[5-(2-aminoethyl)pyrimidin-2-yl]-3-[2-methyl-6-[(2S)-2-methylpyrrolidin-1-yl]pyrimidin-4-yl]oxybenzonitrile] |
| > 1000 | Cc1nc(Oc2cc(C#N)ccc2-c2ncc(CN)cn2)cc(OC2COC2)n1 [compound 895, 4-[5-(aminomethyl)pyrimidin-2-yl]-3-[2-methyl-6-(oxetan-3-yloxy)pyrimidin-4-yl]oxybenzonitrile] |
| 10 to 1000 | Cc1cc(Oc2cc(C#N)ccc2-c2ncc(CCN)cn2)cc(-c2cnccn2)n1 [compound 597, 4-[5-(2-aminoethyl)pyrimidin-2-yl]-3-(2-methyl-6-pyrazin-2-ylpyridin-4-yl)oxybenzonitrile] |
| 10 to 1000 | N#Cc1ccc(-c2ncc(CCN)cn2)c(Oc2cc(N3CCCC3)ncc2C#N)c1 [compound 739, 4-[2-[5-(2-aminoethyl)pyrimidin-2-yl]-5-cyanophenoxy]-6-pyrrolidin-1-ylpyridine-3-carbonitrile] |
| > 1000 | NCCc1cnc(-c2ccc(F)cc2Oc2cnn(CC(F)F)c2)nc1 [compound 1005, 2-[2-[2-[1-(2,2-difluoroethyl)pyrazol-4-yl]oxy-4-fluorophenyl]pyrimidin-5-yl]ethanamine] |
| 10 to 1000 | Cn1nc(-c2ccccn2)cc1Oc1cc(C#N)ccc1-c1ncc(CNC2CC2)cn1 [compound 662, 4-[5-[(cyclopropylamino)methyl]pyrimidin-2-yl]-3-(2-methyl-5-pyridin-2-ylpyrazol-3-yl)oxybenzonitrile] |
| 10 to 1000 | N#Cc1ccc(-c2ccc(CCN)cc2)c(Oc2sc(N3CCCCC3)nc2C(F)(F)F)c1 [compound 785, 4-[4-(2-aminoethyl)phenyl]-3-[[2-piperidin-1-yl-4(trifluoromethyl)-1,3-thiazol-5-yl]oxy]benzonitrile] |
